Here are results for one compound from patent US8394832B2, “Methods and compositions using immunomodulatory compounds for the treatment of immunodeficiency disorders” (Celgene Corporation, priority 2004, dated 2013).

For experiment [1], the system named is B cells. The experiment in a line: B cell proliferation by BrdU ELISA. It is filed as cell-based, human. The settings on record: 3 days (FIG. 7A). Here is the method: (§1) Human buffy coat (50 ml) was diluted with 50 ml sterile PBS (Ca^++, Mg^++ free), and mixed gently. A 25 ml aliquot of diluted buffy coat was transferred to each 50 ml centrifuge tube, and Histopaque-1077 (14 ml, #1077-1, Sigma) was gently layered into the bottom of the tube. The sample was centrifuged at 2,000 rpm for 30 min at room temperature. The interface containing mononuclear cells was transferred into 50 ml centrifuge tube, and washed once with PBS (1200 rpm, 5 min). The supernatant was discarded. Cell pellet was resuspended in Miltenyi buffer. Anti-CD19^+ microbeads were added to the suspension (10^7 cells in 80 μl of buffer, 20 μl antibody beads for 10^7 cells) and incubated for 15 min at 4° C. Cell pellet was washed once and resuspended in 1 ml Miltenyi buffer. The cell suspension was added to the magnetic column, washed with 10 ml Miltenyi buffer in the column. CD19^+ cells are released by 1 ml Miltenyi Buffer without magnetic field. CD19^+ cells were washed twice with RPMI complete medium. B cells (2×10^5) were plated in 96 well plate.
B cells were pretreated with 1,3-dioxo-(2,6-dioxopiperidin-3-yl)-4-aminoisoindoline or 1-oxo-(2,6-dioxopiperidin-3-yl)-4-aminoisoindoline at the concentrations of 60 μM, 6 μM, 0.6 μM, 0.06 μM, 0.006 μM, and 0.0006 μM for 30 min, then were added 2 μg/ml of anti-IgM, 2 μg/ml of anti CD40, 40 ng/ml IL-4, 100 ng/ml of recombinant BAFF, and/or 0.5 μg/ml of LPS. B cells were typically treated with the immunomodulatory compound alone or in presence of one or more of above stimuli for 3 days. Stimulated B cells with or without the treatment with immunomodulatory compound were used for cell proliferation assay and cytokines analysis.
The crosslinking of B cell receptor antigen (“BCR”) is the primary signal for B cell activation in response to antigen, and is critical in initializing subsequent B cell activation, proliferation, and differentiation. To assess B cell activation, B cells were treated with 1,3-dioxo-(2,6-dioxopiperidin-3-yl)-4-aminoisoindoline or 1-oxo-(2,6-dioxopiperidin-3-yl)-4-aminoisoindoline in presence of stimuli for 3 days. 25 μl BrdU was added to 250 μl cell culture 24 hours before harvesting cells. B cells were dried at 60° C. after removal of labeling supernatant. 100 μl FixDenat solution was added to fix cells for 30 min at room temperature. FixDenat solution was removed by tapping plate, then 100 μl anti-BrdU-POD was added each well for 90 min, at room temperature, and the plate was washed three 3 times. 100 μl of substrate was added to plate for 10 min, then 100 μl stop solution was added. Absorbance was measured by using an ELISA microplate reader (Molecular Devices) at OD 450 nm. […]
Background: Dividing cells build labelled thymidine or BrdU into new DNA.

Experiment [2] has as its system B cells. Kind of experiment: Morphological changes of activated B cells (phase contrast microscopy). It is filed as cell-based, human. The settings on record: treated with compound and anti-IgM (FIG. 7B). On the procedure:
as §1
B cells were treated with 1,3-dioxo-(2,6-dioxopiperidin-3-yl)-4-aminoisoindoline (FIG. 6) in presence of anti IgM, anti CD40 and IL-4 for 3 days. The images were captured using phase contrast microscopy with MetaMorph software.
Morphological changes also support IMiDs' costimulation of B cells to drive their proliferation. […]

The next experiment relates to TNFα. Kind of experiment: TNFα ELISA of treated B cells. It is filed as cell-based, human. The settings on record: activated CD19+ cells (FIG. 4). On the procedure:
as §1, with “plate. […]” for “plate.”
TNFα levels in 1,3-dioxo-(2,6-dioxopiperidin-3-yl)-4-aminoisoindoline or 1-oxo-(2,6-dioxopiperidin-3-yl)-4-aminoisoindoline treated B cells were determined using TNFα ELISA.

The next experiment deals with CD69. The experiment in a line: FACS analysis of CD69 expression in CD19+ B cells. The class given is cell-based, human. Here is the method: as §1
B cells were treated with 1,3-dioxo-(2,6-dioxopiperidin-3-yl)-4-aminoisoindoline (FIG. 3A) or 1-oxo-(2,6-dioxopiperidin-3-yl)-4-aminoisoindoline (FIG. 3B) in presence of anti IgM, anti CD40 and IL-4 for 3 days. The suspension of B cells was washed by PBS once, and incubated with FITC conjugated anti human CD69 for 30 min in the dark. B cells were subject to FACS analysis using flow cytometer (EPICS XL-MCL, Beckman Coulter Company).
To assess whether the effects of immunomodulatory compounds on IL-4 signaling impact on IL-4 mediated B cell activation, FACS array of immediate early expression marker CD69 expression at triplicates and six doses was examined using 1,3-dioxo-(2,6dioxopiperidin-3-yl)-4-aminoisoindoline or 1-oxo-(2,6-dioxopiperidin-3-yl)-4-aminoisoindoline. […] Thus, it is clear that immunomodulatory compounds have no impact on this process.

The next experiment concerns IgE synthesis. Kind of experiment: IgE ELISA of human PBMC treated with anti CD40 and IL-4 for three weeks. The class given is cell-based. The settings on record: 504 h, human PBMCs in presence of CD40+IL-4 for three weeks (FIGS. 11A and B), read-out: IC50 of inhibition of IgE synthesis. On the procedure:
Human PBMCs (1×10^6/ml) were treated with immunomodulatory compounds in presence of anti-CD40 (2 ug/ml) and IL-4 (40 ng/ml) for three weeks. Fifty microliter of supernatant was used for IgE ELISA, following the manufacturer's instruction. The absorbance was read by ELISA reader at OD=450 nm.
IL-4 is a unique signal for B cells to produce IgE during the immunoglobulin class switch. To assess whether immunomodulatory compounds can regulated IgE synthesis, 1,3-dioxo-(2,6-dioxopiperidin-3-yl)-4-aminoisoindoline or 1-oxo-(2,6-dioxopiperidin-3-yl)-4-aminoisoindoline was incubated with human PBMCs in presence of CD40+IL-4 for three weeks. […] (FIGS. 11A and B).
Treatment of PBMC: 200 μl of 1×10^6/ml human PBMC were plated in 96 well plate, and the cells were pretreated with IMiDs at indicated concentrations (60, 6, 0.6, 0.06, 0.006, 0.0006 uM) for 30 minutes. Anti CD40 (#AHS4002, Biosource, 2 μg/ml) and IL-4 (#200-04, Pepro Tech, 40 ng/ml) were added to each well. Human PBMC in presence of IMiDs, anti CD40 and IL-4 were incubated for three weeks. Fifty microliters of supernatant was subjected to IgE ELISA.
IgE ELISA: The IgE ELISA Quantitation Kit was purchased from Bethyl Laboratories, Inc. (#E80-108). […] The ELISA plate was read at OD=450 nm in ELISA plate reader.
Background: In an ELISA, binding on a coated surface is turned into a signal by an enzyme label.

For the compound `Nc1cccc2c1C(=O)N(C1CCC(=O)NC1=O)C2=O` (stereo not shown) [1,3-dioxo-(2,6-dioxopiperidin-3-yl)-4-aminoisoindoline], the B cell proliferation entry in the experiment with B cells [1] (combined with IgM (anti-IgM)) is “enhance”. Also, the “effect on B cell activation/proliferation” value in the experiment on B cells [1] (compound alone) was “minimal effect”. For the same compound, the “morphological changes of B cells” value with B cells [2] was “formed large aggregates”. For the same compound, the “TNFα production in B cells” value with TNFα is given as “dose dependently enhance”. Further, the CD69 expression result is reported as “dose-dependently enhanced” in the experiment on CD69 (CD19+ B cells treated with anti human IgM, anti human CD40 and IL-4, 3 days (FIGS. 3A, 3B)); “neither immunomodulatory compound inhibited” in the experiment with CD69 (IL-4 stimulated CD19+ B cells, triplicates, six doses (FIGS. 10A and B)). In the experiment with IgE synthesis, the IC50 fell in the range of 100 to 300 nM.

Usually IC50 stands for the midpoint of a concentration-inhibition curve.
